Bridge positions count the residues as written; N and C are the ends. Square brackets hold non-standard residues; d marks the D form. Peptide text beside a SMILES is read from it. R8 = C=CCCCCCC[C@@](C)(N)C(=O)O; S5 = C=CCCC[C@](C)(N)C(=O)O; Nle = CCCC[C@H](N)C(=O)O
Assays:
S. aureus = format: cell-based, Staphylococcus aureus
Outline: (§1)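 Microdilution MIC test in polyanion-depleted MHB, with a final inoculum of 5×10^5 CFU/ml and 20-24 h incubation at 37° C.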

B. cereus = format: cell-based, Bacillus cereus
Outline: as §1

human red blood cells = format: cell-based; conditions: red cells of human, 1 h, 25
Outline: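 Hemolysis expressed as absorbance of released hemoglobin (570 nm) normalized between untreated and 1% Triton-X100 controls, with MHC taken as peptide concentration giving under 1% release. Peptide dilutions were exposed for 1 h at 37° C to a 1% (v/v) suspension of washed human red cells in PBS.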

E. coli = format: cell-based, Escherichia coli
Outline: as §1

P. aeruginosa = format: cell-based, Pseudomonas aeruginosa
Outline: as §1

## CCCC[C@H](NC(=O)[C@@H](NC(=O)[C@]1(C)CCCC=CCCCCCC[C@@](C)(NC(=O)[C@H](CCCCN)NC(=O)[C@H](CCCCN)NC(=O)[C@H](C)NC(=O)[C@H](CO)NC(=O)[C@H](Cc2c[nH]cn2)NC(=O)[C@H](CC(C)C)NC(=O)[C@H](Cc2ccccc2)NC(=O)[C@H](CCCCN)NC(=O)CNC(=O)[C@@H](NC(=O)CN)[C@@H](C)CC)C(=O)NCC(=O)N[C@@H](CCCCN)C(=O)N[C@@H](C)C(=O)N[C@@H](Cc2ccccc2)C(=O)N[C@@H](C(C)C)C(=O)NCC(=O)N1)[C@@H](C)CC)C(=O)N[C@@H](CC(N)=O)C(=O)N[C@@H](CO)C(N)=O [Mag(i + 7)11] (H-GIGKFLHSAKK[R8]GKAFVG[S5]I[Nle]NS-NH2; staple 12-19 (inferred); N-terminus and C-terminus assumed)
S. aureus
  MIC S. aureus: 3.1 µg/mL
B. cereus
  MIC B. cereus: 3.1 µg/mL
Human red blood cells
  % Hemolysis at 25 μg/ml: 84.8%
E. coli
  MIC E. coli: 1.6 µg/mL
P. aeruginosa
  MIC P. aeruginosa: 1.6 µg/mL

## CCCC[C@H](NC(=O)[C@]1(C)CCCC=CCCCCCC[C@@](C)(NC(=O)[C@H](Cc2ccccc2)NC(=O)[C@H](CCCCN)NC(=O)[C@H](CCCCN)NC(=O)[C@H](C)NC(=O)[C@H](CO)NC(=O)[C@H](Cc2c[nH]cn2)NC(=O)[C@H](CC(C)C)NC(=O)[C@H](Cc2ccccc2)NC(=O)[C@H](CCCCN)NC(=O)CNC(=O)[C@@H](NC(=O)CN)[C@@H](C)CC)C(=O)N[C@@H](CCCCN)C(=O)N[C@@H](C)C(=O)N[C@@H](Cc2ccccc2)C(=O)N[C@@H](C(C)C)C(=O)NCC(=O)N[C@@H](CCC(=O)O)C(=O)N1)C(=O)N[C@@H](CC(N)=O)C(=O)N[C@@H](CO)C(N)=O [Mag(i + 7)12] (H-GIGKFLHSAKKF[R8]KAFVGE[S5][Nle]NS-NH2; staple 13-20 (inferred); N-terminus and C-terminus assumed)
S. aureus
  MIC S. aureus: 12.5 µg/mL
B. cereus
  MIC B. cereus: 3.1 µg/mL
Human red blood cells
  % Hemolysis at 25 μg/ml: 80.3%
E. coli
  MIC E. coli: 1.6 µg/mL
P. aeruginosa
  MIC P. aeruginosa: 3.1 µg/mL

## CC[C@H](C)[C@H](NC(=O)CN)C(=O)NCC(=O)N[C@@H](CCCCN)C(=O)N[C@@H](Cc1ccccc1)C(=O)N[C@@H](CC(C)C)C(=O)N[C@@H](Cc1c[nH]cn1)C(=O)N[C@@H](CO)C(=O)N[C@@H](C)C(=O)N[C@@H](CCCCN)C(=O)N[C@@H](CCCCN)C(=O)N[C@@H](Cc1ccccc1)C(=O)NCC(=O)N[C@]1(C)CCCCCCC=CCCC[C@@](C)(C(=O)N[C@@H](CC(N)=O)C(=O)N[C@@H](CO)C(N)=O)NC(=O)[C@H]([C@@H](C)CC)NC(=O)[C@H](CCC(=O)O)NC(=O)CNC(=O)[C@H](C(C)C)NC(=O)[C@H](Cc2ccccc2)NC(=O)[C@H](C)NC1=O [Mag(i + 7)13] (H-GIGKFLHSAKKFG[R8]AFVGEI[S5]NS-NH2; staple 14-21 (inferred); N-terminus and C-terminus assumed)
S. aureus
  MIC S. aureus: 12.5 µg/mL
B. cereus
  MIC B. cereus: 3.1 µg/mL
Human red blood cells
  % Hemolysis at 25 μg/ml: 63.6%
E. coli
  MIC E. coli: 1.6 µg/mL
P. aeruginosa
  MIC P. aeruginosa: 6.2 µg/mL

## CCCC[C@@H]1NC(=O)[C@H]([C@@H](C)CC)NC(=O)[C@H](CCC(=O)O)NC(=O)CNC(=O)[C@H](C(C)C)NC(=O)[C@H](Cc2ccccc2)NC(=O)[C@](C)(NC(=O)[C@H](CCCCN)NC(=O)CNC(=O)[C@H](Cc2ccccc2)NC(=O)[C@H](CCCCN)NC(=O)[C@H](CCCCN)NC(=O)[C@H](C)NC(=O)[C@H](CO)NC(=O)[C@H](Cc2c[nH]cn2)NC(=O)[C@H](CC(C)C)NC(=O)[C@H](Cc2ccccc2)NC(=O)[C@H](CCCCN)NC(=O)CNC(=O)[C@@H](NC(=O)CN)[C@@H](C)CC)CCCCCCC=CCCC[C@@](C)(C(=O)N[C@@H](CO)C(N)=O)NC1=O [Mag(i + 7)14] (H-GIGKFLHSAKKFGK[R8]FVGEI[Nle][S5]S-NH2; staple 15-22 (inferred); N-terminus and C-terminus assumed)
S. aureus
  MIC S. aureus: 1.6 µg/mL
B. cereus
  MIC B. cereus: 1.6 µg/mL
Human red blood cells
  % Hemolysis at 25 μg/ml: 68.1%
E. coli
  MIC E. coli: 1.6 µg/mL
P. aeruginosa
  MIC P. aeruginosa: 6.2 µg/mL

Reference: patent publication US20200231638A1, “STABILIZED ANTI-MICROBIAL PEPTIDES” (priority 2015, published 2020)
